Publication PMC12188320 (2025)

Assays:
[1] = system: CMYC (DNA, G4) TGGGGAGGGTGGGGAGGGTGGGGAAGG; test: CD melting; details: Li+ (10 mM LiCl, 100 mM lithium cacodylate; supplement: 90 mM LiCl, 10 mM cacodylate); pH 7; CMYC 5 µM, Ru-PIC 2 equivalents (10 µM)
[2] = system: NRAS (RNA, G4) UGUGGGAGGGGCGGGUCUGGGUGC; test: CD melting; details: Li+ (10 mM LiCl, 100 mM lithium cacodylate); pH 7; NRAS 5 µM, Ru-PIC 2 equivalents (10 µM); no stabilization observed
[3] = system: CMYC (DNA, G4) TGGGGAGGGTGGGGAGGGTGGGGAAGG; test: absorbance and luminescence titration; details: K+ (10 mM potassium phosphate, 100 mM KCl); Ru-PIC 10 µM, CMYC 0-30 µM; no constant
[4] = system: NRAS (RNA, G4) UGUGGGAGGGGCGGGUCUGGGUGC; test: luminescence and absorbance titration; details: K+ (10 mM potassium phosphate, 100 mM KCl); RNase-free buffer; Ru-PIC 2 µM, NRAS 0-6 µM; negligible spectral change; no constant

Question: O=C(O)c1ccc(-c2nc3c4cccnc4c4ncccc4c3[nH]2)cc1.[Ru+2].c1ccc(-c2ccccn2)nc1.c1ccc(-c2ccccn2)nc1 was tested. Which ΔTm [1] did it give?
Answer: 9.1 ± 0.3 °C

Question: And the binding [2]?
Answer: no

Question: And the binding [3]?
Answer: yes

Question: What about the binding [4] of the same molecule?
Answer: weak
